# Measured values published in patent US7135502B1, “Colchinol derivatives as vascular damaging agents” (priority 1999, dated 2006).
# How the values were obtained:
# CaNT tumour vasculature = assay: Activity against tumour vasculature measured by fluorescent dye (Hoechst 33342), tumour functional vascular volume; type: in vivo; details: fluorescent dye method, CaNT tumour-bearing mice, dye 24 hours after drug treatment; for % Decrease in vascular volume: intraperitoneal, dose not given
# Description: (b) Activity Against Tumour Vasculature Measured by Fluorescent Dye
# Tumour functional vascular volume of CaNT tumour-bearing mice was measured using the fluorescent dye Hoechst 33342 according to the method of Smith et al (Brit. Jnl. Cancer 1988, 57, 247–253). Five animals were used in control and treated group. The fluorescent dye was dissolved in saline at 6.25 mg/ml and injected intravenously at 10 mg/kg 24 hours after intraperitoneal drug treatment. One minute later, animals were killed and tumours excised and frozen; 10 μm sections were cut at 3 different levels and observed under UV illumination using an Olympus microscope equipped with epifluorescence. Blood vessels were identified by their fluorescent outlines and vascular volume was quantified using a point scoring system based on that described by Chalkley, (Jnl. Natl. Cancer Inst., 1943, 4, 47–53). All estimates were based on counting a minimum of 100 fields from sections cut at the 3 different levels.
# tubulin = assay: Tubulin polymerisation assay; type: biochemical; details: method of O. Boye et al Med. Chem. Res., 1991, 1, 142-150
# Source text: The ability of the compounds to bind to preparations of mammalian tubulin can be evaluated by a number of methods available in the literature, for example by following temperature initiated tubulin polymerisation by turbidity in the absence and presence of the compound (for example O. Boye et al Med. Chem. Res., 1991, 1, 142–150).
# vasculature = details: at maximum tolerated dose; Lancet, 1994, 344, 1267-1271; cited from earlier work
smiles,measurement,setting,value
"COc1cc2c(c(OC)c1OC)-c1ccc(NC(=O)[C@H](C)N)cc1C(NC(C)=O)CC2 (some centres unmarked) [Example 2, N-[3-(alanylamino)-9,10,11-trimethoxy-6,7-dihydro-5H-dibenzo[a,c]cyclohepten-5-yl]acetamide]",% Decrease in vascular volume,CaNT tumour vasculature,95%
"COc1cc2c(c(OC)c1OC)-c1ccc(OC(=O)N3CCC(N4CCCCC4)CC3)cc1C(NC(C)=O)CC2 (centres unmarked) [Example 3, N-[3-(4-(1-piperidinyl)piperidinylcarbonyloxy)-9,10,11-trimethoxy-6,7-dihydro-5H-dibenzo[a,c]cyclohepten-5-yl]acetamide]",% Decrease in vascular volume,CaNT tumour vasculature,45%
"COc1cc2c(c(OC)c1OC)-c1ccc(N)cc1C(NC(C)=O)CC2 (centres unmarked) [N-[3-amino-9,10,11-trimethoxy-6,7-dihydro-5H-dibenzo[a,c]cyclohepten-5-yl]acetamide]",IC50,tubulin,58 µM
same,decrease in perfused vascular volume relative to control,CaNT tumour vasculature; 50 mg/kg intraperitoneally,88%
CC(=O)O[C@@]12CO[C@@H]1C[C@H](O)[C@@]1(C)C(=O)[C@H](O)C3=C(C)[C@@H](OC(=O)[C@H](O)[C@@H](NC(=O)OC(C)(C)C)c4ccccc4)C[C@@](O)([C@@H](OC(=O)c4ccccc4)[C@H]21)C3(C)C [docetaxel],vascular-damaging activity when administered at the MTD,vasculature,no vascular-damaging activity
